Test system: membrane preparation from dog kidney cortex
Assay: Inactivation by membrane preparation from dog kidney cortex
Type: in vitro ADME
Source text: A unique proteolytic product separated by HPLC on a reverse phase column appears as a single peak which elutes prior to the intact peptide.

With `CC[C@H](C)[C@@H]1NC(=O)[C@H](CCCNC(=N)N)NC(=O)[C@H](CC(=O)O)NC(=O)[C@H](CCSC)NC(=O)[C@H](CCCNC(=N)N)NC(=O)CNC(=O)CNC(=O)[C@H](Cc2ccccc2)NC(=O)[C@@H](NC(=O)[C@H](CO)NC(=O)[C@H](CO)NC(=O)[C@H](CCCNC(=N)N)NC(=O)[C@H](CCCNC(=N)N)NC(=O)[C@H](CC(C)C)NC(=O)[C@@H](N)CO)CSSC[C@@H](C(=O)N[C@@H](CC(N)=O)C(=O)N[C@@H](CO)C(=O)N[C@@H](Cc2ccccc2)C(=O)N[C@@H](CCCNC(=N)N)C(=O)N[C@@H](Cc2ccc(O)cc2)C(=O)O)NC(=O)CNC(=O)[C@H](CC(C)C)NC(=O)CNC(=O)[C@H](CO)NC(=O)[C@H](CCC(N)=O)NC(=O)[C@H](C)NC(=O)CNC1=O` [ANF-(99-126)] the “position of the inactivating cleavage of the ring structure” value was “between Cys-105 and Phe-106”.
